In this assay the target is Eukaryotic translation initiation factor 4 gamma 1 (Homo sapiens, UniProt Q04637). Put plainly: blockers of eIF4G binding by eIF4E – biochemical, TR-FRET, dose response (AID 855).
Eukaryotic translation initiation factor 4 gamma 1, sequence (Q04637 whole entry): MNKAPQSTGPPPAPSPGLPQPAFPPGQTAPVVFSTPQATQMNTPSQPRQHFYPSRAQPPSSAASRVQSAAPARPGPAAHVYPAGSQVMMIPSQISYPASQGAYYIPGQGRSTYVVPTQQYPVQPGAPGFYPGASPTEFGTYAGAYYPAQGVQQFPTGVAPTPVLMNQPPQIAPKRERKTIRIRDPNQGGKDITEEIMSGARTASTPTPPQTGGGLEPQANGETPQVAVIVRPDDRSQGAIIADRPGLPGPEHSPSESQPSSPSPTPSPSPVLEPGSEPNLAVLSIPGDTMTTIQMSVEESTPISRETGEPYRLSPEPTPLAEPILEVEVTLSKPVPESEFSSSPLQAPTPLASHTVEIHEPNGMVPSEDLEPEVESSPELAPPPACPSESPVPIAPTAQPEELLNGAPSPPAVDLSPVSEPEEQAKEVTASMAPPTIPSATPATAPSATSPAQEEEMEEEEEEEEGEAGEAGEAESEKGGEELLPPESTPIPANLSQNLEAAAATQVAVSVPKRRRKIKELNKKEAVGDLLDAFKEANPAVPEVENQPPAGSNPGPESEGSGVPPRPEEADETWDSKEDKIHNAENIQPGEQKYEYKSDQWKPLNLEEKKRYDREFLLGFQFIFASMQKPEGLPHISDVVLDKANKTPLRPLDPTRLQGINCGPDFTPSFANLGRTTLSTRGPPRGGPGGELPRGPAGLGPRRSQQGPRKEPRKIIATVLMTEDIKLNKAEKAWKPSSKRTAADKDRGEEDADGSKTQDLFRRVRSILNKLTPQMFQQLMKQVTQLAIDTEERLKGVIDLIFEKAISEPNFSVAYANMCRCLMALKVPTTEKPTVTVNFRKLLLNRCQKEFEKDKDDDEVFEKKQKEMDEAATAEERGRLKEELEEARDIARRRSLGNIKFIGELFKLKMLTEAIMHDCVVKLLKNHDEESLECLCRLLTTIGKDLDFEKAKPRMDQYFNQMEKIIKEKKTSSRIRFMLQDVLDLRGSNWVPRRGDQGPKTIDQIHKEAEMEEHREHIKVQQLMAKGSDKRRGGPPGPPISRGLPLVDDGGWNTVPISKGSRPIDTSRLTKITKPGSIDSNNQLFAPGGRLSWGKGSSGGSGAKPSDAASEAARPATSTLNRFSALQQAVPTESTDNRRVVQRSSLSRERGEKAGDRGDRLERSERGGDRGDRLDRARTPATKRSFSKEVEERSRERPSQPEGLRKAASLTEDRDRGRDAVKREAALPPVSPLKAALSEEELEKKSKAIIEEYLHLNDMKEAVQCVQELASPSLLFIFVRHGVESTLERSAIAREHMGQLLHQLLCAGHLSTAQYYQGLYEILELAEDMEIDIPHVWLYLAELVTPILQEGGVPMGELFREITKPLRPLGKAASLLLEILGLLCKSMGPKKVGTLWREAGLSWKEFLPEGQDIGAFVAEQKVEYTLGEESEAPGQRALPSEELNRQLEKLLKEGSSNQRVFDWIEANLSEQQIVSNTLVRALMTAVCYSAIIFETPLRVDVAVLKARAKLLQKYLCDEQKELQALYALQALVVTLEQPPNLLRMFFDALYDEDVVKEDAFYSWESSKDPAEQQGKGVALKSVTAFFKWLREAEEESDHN

Consider `C=c1cc2[nH]c(=O)c(=Cc3cc(C)n(-c4ccccc4)c3C)c(=N)n2o1`, for which the IC50 is more than 64 µM.

Take `CC(=O)C1=C(c2ccccc2)OC(=N)C(C#N)C1c1ccc(O)cc1` (configuration not stated) [2-azanyl-5-ethanoyl-4-(4-hydroxyphenyl)-6-phenyl-4H-pyran-3-carbonitrile]: the IC50 was more than 64 µM.

For the compound `COc1ccc(Cn2c(Nc3cc(Cl)ccc3OC)c3[nH]cccc-3c2=O)cc1` [7-[(5-chloranyl-2-methoxy-phenyl)amino]-6-[(4-methoxyphenyl)methyl]-7H-pyrrolo[3,4-b]pyridin-5-one], the IC50 was 14.4 µM.

`COc1cc(C2C(C(=O)c3ccccc3)C(=O)C(=O)N2c2ccccn2)ccc1O` (configuration not stated) [(4Z)-5-(3-methoxy-4-oxidanyl-phenyl)-4-[oxidanyl(phenyl)methylidene]-1-pyridin-2-yl-pyrrolidine-2,3-dione] displayed an IC50 of 50 µM.

As for `CC(=O)C1=C(C)N=C(SCc2ccc(C#N)cc2)C(C#N)C1c1ccco1` (configuration not stated) [5-acetyl-2-[(4-cyanophenyl)methylsulfanyl]-4-(furan-2-yl)-6-methyl-1,4-dihydropyridine-3-carbonitrile], the IC50 is more than 64 µM.

Turning to `COc1ccc(-c2cnnc(N=NCc3ccc(-c4ccc([N+](=O)[O-])cc4)o3)n2)cc1`, the IC50 was determined as 50 µM.

Compound `O=C1N=C(Nc2ccc(O)cc2)SC1=C1C(=O)Nc2ccccc21` [(5Z)-2-[(4-hydroxyphenyl)amino]-5-(2-oxidanylidene-1H-indol-3-ylidene)-1,3-thiazol-4-one] had an IC50 of 50 µM.

In turn, `C[N+](C)(C)c1ccc(CN=Nc2nc(Cl)c(C#N)c(Cl)c2Cl)cc1` [trimethyl-[4-[[(3,4,6-trichloro-5-cyanopyridin-2-yl)hydrazinylidene]methyl]phenyl]azanium;iodide] showed an IC50 of more than 64 µM.

Take `Cc1cc(CN=Nc2ccc([N+](=O)[O-])cn2)c(C)n1-c1ccc(C(=O)O)cc1` [4-{2,5-dimethyl-3-[2-(5-nitro-2-pyridinyl)carbonohydrazonoyl]-1H-pyrrol-1-yl}benzoic acid]: the IC50 was 50 µM.

Take `Cc1ccc(-n2c(C)cc(CN=Nc3ccc([N+](=O)[O-])cn3)c2C)cc1` [MLS000552475]: the half-maximal inhibitory concentration (IC50) was more than 64 µM.

`Cc1ccc(Nc2c3[nH]cccc-3c(=O)n2-c2ccccc2C)cc1C` [SMR000028201]: the IC50 stood at 9.59 µM.

Consider `COc1ccc(Cc2c(O)n(-c3ccccc3)c(=O)[nH]c2=O)c(OC)c1`, for which the IC50 is more than 64 µM.

`NC(=NNC=c1ccc(=C2C=CC(=O)C(C(=O)O)=C2)o1)N[N+](=O)[O-]` [5-(5-{2-[amino(nitroimino)methyl]carbonohydrazonoyl}-2-furyl)-2-hydroxybenzoic acid] gave an IC50 of 63.6 µM.

Take `COc1ccc2nc(N3C(=O)C(=C4C(=O)Nc5ccccc54)NC3=S)sc2c1` [(3Z)-3-[1-(6-methoxy-1,3-benzothiazol-2-yl)-5-oxidanylidene-2-sulfanylidene-imidazolidin-4-ylidene]-1H-indol-2-one]: the IC50 was more than 64 µM.

`Cc1ccccc1C(=O)Nc1cccc(C(=O)N/N=C/C2C=C(Cl)C=C([N+](=O)[O-])C2=O)c1` (configuration not stated) [N-(3-{[(2E)-2-(5-chloro-2-hydroxy-3-nitrobenzylidene)hydrazino]carbonyl}phenyl)-2-methylbenzamide] returned an IC50 of 50 µM. In other words, the double-digit micromolar range.

`O=[N+]([O-])c1cc(Br)c(O)c(CN=Nc2nnnn2-c2cccc3ccccc23)c1` [(6E)-2-bromo-6-[[2-(1-naphthalen-1-yltetrazol-5-yl)hydrazinyl]methylidene]-4-nitrocyclohexa-2,4-dien-1-one] gave an IC50 of more than 64 µM.

As to `O=C1Nc2ccc([N+](=O)[O-])cc2/C1=N/NC(=O)c1cc(-c2ccccc2Cl)nc2ccccc12` [2-(2-chlorophenyl)-N'-(2-keto-5-nitro-indol-3-yl)cinchoninohydrazide], the IC50 is more than 64 µM.

Regarding `O=C1C=CC(CN=Nc2nccs2)C=C1[N+](=O)[O-]` (configuration not stated) [(4Z)-2-nitro-4-[(2-thiazolylhydrazo)methylidene]-1-cyclohexa-2,5-dienone], the IC50 came to 10.8 µM.

`CC(C)(C)c1[nH]nc2c1C(c1ccc(OC(=O)c3ccco3)cc1)C(C#N)C(=N)O2` (configuration not stated) [2-furancarboxylic acid [4-(6-amino-3-tert-butyl-5-cyano-2,4-dihydropyrano[2,3-c]pyrazol-4-yl)phenyl] ester] registered an IC50 of more than 64 µM.

`CN(C)[C@@H]1C(=O)C(C(=O)NCN2CCCC2)C(=O)[C@@]2(O)C(=O)C3C(=O)c4c(O)cccc4[C@@](C)(O)C3CC12` (stereo partly drawn) [(2Z,4S,6S,12aS)-4-(dimethylamino)-6,10,11,12a-tetrahydroxy-2-[hydroxy-(1-pyrrolidinylmethylamino)methylidene]-6-methyl-4,4a,5,5a-tetrahydrotetracene-1,3,12-trione] showed an IC50 of 12.3 µM.

On to `CN(C)[C@@H]1C(=O)C(C(N)=O)C(=O)[C@@]2(O)C(=O)C3C(=O)c4c(O)cccc4[C@@](C)(O)[C@H]3[C@H](O)[C@@H]12` (stereo partly drawn) [(2E,4S,4aR,5S,5aR,6S,12aS)-2-[azanyl(oxidanyl)methylidene]-4-(dimethylamino)-6-methyl-5,6,10,11,12a-pentakis(oxidanyl)-4,4a,5,5a-tetrahydrotetracene-1,3,12-trione], for which the IC50 was determined as 50 µM.

With `O=C1CCCC(=O)C1C(C#Cc1ccccc1)C1C(=O)CCCC1=O` [3-hydroxy-2-[1-(2-hydroxy-6-keto-cyclohexen-1-yl)-3-phenyl-prop-2-ynyl]cyclohex-2-en-1-one], the IC50 was more than 64 µM.

Turning to `CSc1ccc(CN=Nc2cccc(C(=O)O)c2)cc1` [3-[(N'E)-N'-[4-(methylthio)benzylidene]hydrazino]benzoic acid], the IC50 worked out at 50 µM.

Take `Cc1ccc(/C=C/C(=O)C2=C(O)N(C)C3(C)CC2c2ccccc2O3)cc1` (configuration not stated) [MLS000519940]: the IC50 is more than 64 µM.

As for `Oc1cc(N2CCN(Cc3ccc4c(c3)OCO4)CC2)c(O)n1-c1cccc(Cl)c1` [1-(3-chlorophenyl)-3-(4-piperonylpiperazino)pyrrolidine-2,5-quinone], the IC50 is more than 64 µM.

As to `O=C1CCCC2=Nc3[nH]c(=S)[nH]c(=O)c3C(c3ccc(Br)cc3)C12` (configuration not stated) [5-(4-bromophenyl)-2-thioxo-2,3,5,8,9,10-hexahydropyrimido[4,5-b]quinoline-4,6(1H,7H)-dione], the IC50 is more than 64 µM.

`O=NCC(=O)Nc1ccc(F)cc1` [MLS000036190] showed an IC50 of more than 64 µM.

Source of the values: BindingDB's records for doi:10.7270/Q2RN3686 (Emory University, 2009).
